Measurements taken from patent US11993581B2, “Pyridazine compounds for inhibiting Nav1.8” (Lieber Institute, Inc., priority 2018, dated 2024).

Molecular target: T1, human Nav1.8 (hNav1.8) ion channel (Homo sapiens, UniProt Q9Y5Y9)
T1 construct: expressed in transfected cells
Experiment: Nav1.8 inhibition, estimated IC50 (Nav1.8 fluorescence, PatchXpress and/or IonFlux HT automated patch clamp assay)
Format: cell-based
Conditions: HEK293 cells stably expressing hNav1.8; determined using one or more of the described methods; read-out: Activity range (estimated IC50)
Method: The ability of pyridine carboxamide derivatives exemplified above to inhibit the Nav1.8 channel was determined using one or more of the methods described below.
HEK Nav1.8 β1/β2 Stably Expressing Cell Line
A HEK293 cell line stably expressing the human Nav1.8 (hNav1.8) ion channel with β1/β2 subunits was constructed. The cell line is suitable for IC50 determination in fluorescence and electrophysiological based assays. It is also suitable to conduct mechanism of action pharmacology studies in electrophysiological assays. HEK293 Nav1.8 cells are grown as adherent monolayers in DMEM/high glucose media, 10% fetal bovine serum, Na pyruvate (2 mM), Hepes (10 mM) with selection agents G418 (400 mg/L) and puromycin (0.5 mg/L) at 37 degrees C., 10% CO2.
Nav1.8 Fluorescence Inhibition Assay
Compounds were made up to or supplied as a 10-mM stock solution using DMSO as the vehicle. Concentration-response curves were generated using a Matrix multichannel pipettor. Compound source plates were made by diluting 10 mM compound stocks to create 500 μM (100×) solutions in DMSO in 96-well v-bottom plates. Compounds were then serially diluted in 100% DMSO to generate a 5 point, 4-fold dilution scheme dose response curve. 2 μL of the 100× dose response curves were then added to preincubation and stimulation assay plates. 100 μL of pre-incubation buffer and 200 μl of stimulation buffer was then added to the plates resulting in a final assay test concentration range of 5 μM to 0.02 μM with a final DMSO concentration of 1%.
On the day of assay, plates were washed to remove cell culture media using 2K EBSS buffer (135 mM NaCl, 2 mM KCl, 5 mM Glucose, 2 mM CaCl2, 1 mM MgCl2, 10 mM HEPES, pH 7.4). The Na-sensitive fluorescent dye, Asante Natrium Green-2 (ANG-2) was incubated for 60 min to allow equilibration and then washed with 2K EBSS. Plates were then transferred to a fluorescence plate reader (FLIPR™, Molecular Devices) for fluorescence measurement using an excitation wavelength of 490 nm and an emission wavelength of 565 nm. Compounds were pre-incubated for 5 min at final test concentration in the presence of ouabain (30 μM) to inhibit Na+ efflux through Na+/K+ exchanger. Following the pre-incubation phase, hNav1.8 channels were stimulated with 10 μM of the pyrethroid deltamethrin to prevent channel inactivation. The assay was run for 15 minutes with vehicle and 30 μM tetracaine serving as negative and positive controls, respectively. The peak change in fluorescence relative to negative and positive control wells was calculated and fit with a logistic equation to determine IC50.
PatchXpress Nav1.8 Inhibition Assay
HEK-Nav1.8 β1/β2 cells were recorded in whole cell patch-clamp using the PatchXpress automated patch clamp platforms (Molecular Devices). Cell suspensions were obtained by trypsinization of adherent monolayers, followed by gentle rocking for minimally 30 min. Compounds were prepared from 10 mM DMSO stocks.
Nav1.8 channel variants were evaluated using Protocol 1 in which cells were initially voltage clamped at a holding potential of −100 mV to maintain Nav1.8 in a closed resting state. After current amplitude becomes stable, the mid-point voltage of steady state inactivation was determined for each cell using a series of 5 sec conditioning steps to increasingly depolarized voltages (−100 to 0 mV) The holding potential was then reset to a voltage that produces ˜50% inactivation (Vhalf-set automatically via PatchXpress scripts) so that closed and inactivated channel inhibition could be assessed. Protocol 1 was run at a frequency of 0.1 Hz until current amplitude is steady (automatically determined by PatchXpress scripts). The effect of test reagent on Nav current amplitude was monitored using custom PatchXpress stability scripts which determines the timing of compound addition and washout.
Data were processed and analyzed using DataXpress 2.0 (Molecular Devices). […]

T1 sequence (Q9Y5Y9 whole entry): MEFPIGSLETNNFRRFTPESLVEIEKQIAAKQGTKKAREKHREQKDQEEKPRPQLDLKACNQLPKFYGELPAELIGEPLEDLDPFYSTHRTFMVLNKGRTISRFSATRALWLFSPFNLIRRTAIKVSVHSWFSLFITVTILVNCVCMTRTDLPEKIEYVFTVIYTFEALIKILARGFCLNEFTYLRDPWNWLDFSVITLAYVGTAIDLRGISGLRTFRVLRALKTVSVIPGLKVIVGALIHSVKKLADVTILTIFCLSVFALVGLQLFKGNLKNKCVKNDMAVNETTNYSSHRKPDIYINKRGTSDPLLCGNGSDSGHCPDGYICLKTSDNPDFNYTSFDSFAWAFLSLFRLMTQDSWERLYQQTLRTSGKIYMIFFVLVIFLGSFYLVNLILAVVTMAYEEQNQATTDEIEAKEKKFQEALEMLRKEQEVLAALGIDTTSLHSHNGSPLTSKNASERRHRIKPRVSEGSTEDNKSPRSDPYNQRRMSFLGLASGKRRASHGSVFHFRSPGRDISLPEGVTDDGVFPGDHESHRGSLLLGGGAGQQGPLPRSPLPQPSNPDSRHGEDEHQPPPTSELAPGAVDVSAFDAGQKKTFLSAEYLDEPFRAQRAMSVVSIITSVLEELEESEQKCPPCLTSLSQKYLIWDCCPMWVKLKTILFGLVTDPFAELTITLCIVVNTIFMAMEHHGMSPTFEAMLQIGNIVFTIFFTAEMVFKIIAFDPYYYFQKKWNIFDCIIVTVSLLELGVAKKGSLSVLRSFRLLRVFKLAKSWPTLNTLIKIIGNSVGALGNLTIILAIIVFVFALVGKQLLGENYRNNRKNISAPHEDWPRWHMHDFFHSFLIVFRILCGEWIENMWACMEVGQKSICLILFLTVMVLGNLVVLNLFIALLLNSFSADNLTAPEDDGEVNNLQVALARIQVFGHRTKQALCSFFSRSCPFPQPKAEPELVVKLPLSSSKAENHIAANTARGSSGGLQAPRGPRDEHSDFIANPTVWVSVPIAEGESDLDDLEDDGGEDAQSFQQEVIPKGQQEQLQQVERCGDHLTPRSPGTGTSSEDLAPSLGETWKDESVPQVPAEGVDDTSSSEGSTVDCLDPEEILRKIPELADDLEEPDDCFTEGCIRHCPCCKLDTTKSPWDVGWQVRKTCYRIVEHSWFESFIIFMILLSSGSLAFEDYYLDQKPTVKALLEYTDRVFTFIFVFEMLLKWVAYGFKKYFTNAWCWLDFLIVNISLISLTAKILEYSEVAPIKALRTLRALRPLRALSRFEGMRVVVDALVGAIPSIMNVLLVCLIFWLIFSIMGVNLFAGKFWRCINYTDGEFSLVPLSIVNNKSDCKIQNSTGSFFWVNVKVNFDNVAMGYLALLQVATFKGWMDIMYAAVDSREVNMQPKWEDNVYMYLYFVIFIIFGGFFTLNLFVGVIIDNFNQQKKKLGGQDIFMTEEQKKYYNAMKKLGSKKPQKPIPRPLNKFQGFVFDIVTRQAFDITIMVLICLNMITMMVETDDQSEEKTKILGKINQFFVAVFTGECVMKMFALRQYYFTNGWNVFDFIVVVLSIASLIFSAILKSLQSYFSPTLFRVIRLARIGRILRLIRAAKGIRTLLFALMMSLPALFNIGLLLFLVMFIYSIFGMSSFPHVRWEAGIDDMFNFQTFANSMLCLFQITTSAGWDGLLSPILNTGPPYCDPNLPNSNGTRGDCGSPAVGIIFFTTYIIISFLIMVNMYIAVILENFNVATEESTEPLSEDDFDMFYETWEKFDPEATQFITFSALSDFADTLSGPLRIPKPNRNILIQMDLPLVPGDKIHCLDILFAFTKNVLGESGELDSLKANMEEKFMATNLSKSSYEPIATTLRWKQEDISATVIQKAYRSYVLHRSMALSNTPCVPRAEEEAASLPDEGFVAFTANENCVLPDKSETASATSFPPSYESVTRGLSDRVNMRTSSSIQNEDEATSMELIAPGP
T1 sequence (Q07699 19-218 partner): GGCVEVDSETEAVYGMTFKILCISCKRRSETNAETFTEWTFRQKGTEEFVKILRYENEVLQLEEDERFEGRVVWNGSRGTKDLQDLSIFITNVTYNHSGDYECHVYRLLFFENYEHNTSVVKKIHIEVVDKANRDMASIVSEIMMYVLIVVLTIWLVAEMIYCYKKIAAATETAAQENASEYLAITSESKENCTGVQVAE

IC50 | SMILES
< 500 nM | Cc1ccnc(N2CCOCC2)c1CNC(=O)c1cnnc(-c2ccc(OC(F)(F)F)cc2)c1 [Example 59, N-[(4-methyl-2-morpholino-3-pyridyl)methyl]-6-[4-(trifluoromethoxy)phenyl]pyridazine-4-carboxamide]
< 500 nM | Cc1ccnc(N2CCOCC2)c1CNC(=O)c1cnnc(-c2ccc(Cl)cc2)c1 [Example 60, 6-(4-chlorophenyl)-N-[(4-methyl-2-morpholino-3-pyridyl)methyl]pyridazine-4-carboxamide]
